Assay results: patent US6855669B2, “Use of α,β unsaturated aliphatic aldehydes and ketones to inhibit potato tuber sprouting” (Washington State University Research Foundation, priority 2000, dated 2005)

Legend:
Assay type in all cases: in vivo, Solanum tuberosum
[1] = tested on: Desiree potatoes (tubers); test: Example 1: plant emergence and plant growth from treated tubers planted in greenhouse; conditions: 200 μL then 1000 μL in 9.2 L desiccator, 56 hour treatment, harvest 21 days after planting
Experimental: Methods: […] potatoes were produced in research plots at the Edmonton Research Station, University of Alberta in 1999. The tubers were harvested in September, washed, transported to Washington State University and placed in 4° C. storage in late October. Tubers, selected for uniform size, were taken from the storage area for the experiment in June. The 9-month-old tubers were fully emerged from dormancy after this prolonged storage interval; however, no sprout growth had occurred at the low storage temperature. The tubers were washed, air-dried, and evenly divided between two 9.2 liter (L) glass desiccators (8 tubers per desiccator). Trans-2-hexenal (200 μL) was pipetted into a 50 milliliter (mL) beaker that was placed inside one of the desiccators. The other desiccator served as control. Both desiccators were closed and the tubers were incubated in the two atmospheres for 32 hours. The desiccators were then opened, an additional 1000 μL of trans-2-hexenal was added to the beaker, and the desiccators were closed for an additional 24 hours. One tuber from each chamber was sampled for trans-2-hexenal content at the end of the 56 hour treatment interval. […] Time to plant emergence was recorded and plants were harvested 21 days after planting. Plants were separated into various components (e.g., stems, leaves) at harvest and the effects of trans-2-hexenal on plant morphology were assessed.

[2] = tested on: Ranger Russet seed-tubers; test: Example 2: etiolated sprout development and tuber quality, Ranger Russet; conditions: 4.7 mmol/kg potato tubers, 25 days
Experimental: Methods: Ten-month-old Ranger Russet, Umatilla and Russet Burbank seed-tubers were taken from 4° C. storage and treated with trans-2-hexenal in 9.2-L glass desiccators as described in Example 1. The tubers were exposed to trans-2-hexenal for 0, 12 and 24 hours at 23° C. at a concentration of 4.7 mmol/kg potato tubers. Regardless of exposure time, all tubers remained enclosed in the chambers for the entire 24 hour period. This was accomplished by introducing the trans-2-hexenal at zero-time (into the 24 hour treatment desiccator) and after 12 hour incubation (into the 12 hour treatment desiccator) through a septum in the top of the closed desiccator. The treated tubers were planted into moistened peat/perlite/soil potting mix and placed in the dark at 24° C. to stimulate sprouting. The experiment was set up in a randomized complete block design (5 replicates) with treatments (3 cultivars×3 exposure times) arranged factorially. Effects of trans-2-hexenal exposure and cultivar on etiolated sprout development and tuber quality were assessed 25 days after removal from the 4° C. storage.

[3] = tested on: Russet Burbank seed-tubers; test: Example 3: potato tuber respiration (CO2 in outflow, infra-red gas analyzer); conditions: 0.96 mmol/kg
Experimental: Methods: Eleven-month-old Russet Burbank seed-tubers were taken from a 4° C. storage area and treated with 250 μL of trans-2-hexenal in a 9.2 liter (L) glass desiccator (0.96 mmol/kg potato tubers) for 12 hours at 23° C. The trans-2-hexenal was pipetted onto Whatman #1 filter paper in a glass petri dish (5.5 cm diameter) inside the desiccator. Control tubers were enclosed in a desiccator without trans-2-hexenal. Following treatment, the tubers were enclosed in 1 L […] chambers (3 tubers per chamber) that were placed at 15° C. A continuous airflow (approximately 80 mL/min; 21% O2, 79% N2) was established around the tubers through inlet and outlet ports in the lid of each chamber. Respiration rates were determined at four hour intervals over a 28 day storage period by quantifying CO2 in the outflow from each chamber with a LI-COR model 6262 infra-red gas analyzer (LI-COR Inc., Lincoln Nebr.). The experiment was set up in a randomized complete block design (5 replicates) with two treatments (control and trans-2-hexenal-treated). The effect of trans-2-hexenal exposure on the development of etiolated sprouts was assessed 28 days after removal from the 4° C. storage.

[4] = tested on: Russet Burbank and Ranger Russet seed-tubers; test: Example 5: sprout inhibition by C5 to C9 trans-2 aldehydes over prolonged storage (17 weeks); conditions: 0.5, 0.75 and 1.0 mmol/kg tuber, 24 hours; 17 weeks at 8° C., 95% RH
Experimental: (46° F.), 95% relative humidity (RH), for 17 weeks. As described more fully in Example 5, four-month-old tubers (previously stored at 4° C.) were treated (for 24 h) with different concentrations of the aldehydes in mid January. The treated tubers were then stored in the dark for 120 days (17 weeks).
Methods: Four-month-old Russet Burbank and Ranger Russet seed-tubers were taken from a 4° C. storage area and treated (Jan. 10, 2001) separately with 0, 0.5, 0.75 and 1.0 mmol/kg tuber of trans-2-pentenal, trans-2-hexenal, trans-2-heptenal, trans-2-octenal, and trans-2-nonenal in 3.9 L glass jars. The volume of inhibitor required to achieve the above rates was pipetted onto filter paper discs inside the lids of each jar. The concentration of inhibitors in the headspace of the jars was equal at 0.16 mmol/L. The tubers were enclosed in the jars and thus exposed to inhibitor vapor for 24 hours at 23° C. Control tubers were enclosed in a glass jar without any aldehyde. Following treatment, tubers were removed from the jars and placed at 8° C. (46° F.) (95% relative humidity) in the dark to sprout for 120 days (17 weeks). The experiment was set up in a randomized complete block design (5 replicates) with chemicals and concentrations arranged factorially. Effects of the aliphatic aldehydes on the development of etiolated sprouts were documented photographically and quantitatively (sprout number and fresh weight) after 120 days of storage.

CCC/C=C/C=O [trans-2-hexenal]
sprouting, plant emergence and plant growth from potato tubers (in words) [1]: clearly inhibited sprouting
Average Sprout Length ([2]; 12 h exposure): 0 cm/tuber
External Pit Rating (1-4 scale) ([2]; 12 h exposure): 3.1
Soft Rot Lesions ([2]; 12 h exposure): 1.0 no/tuber
Sprout Fresh Weight ([2]; 12 h exposure): 0 g/tuber
Average Sprout Length ([2]; 24 h exposure): 0 cm/tuber
External Pit Rating (1-4 scale) ([2]; 24 h exposure): 3.7
Soft Rot Lesions ([2]; 24 h exposure): 1.2 no/tuber
Sprout Fresh Weight ([2]; 24 h exposure): 0 g/tuber
time after treatment at which respiration reached a level equal to the untreated tubers ([3]; 12 hours, storage at 15° C.): ≤ 32 h
respiration lower than control tubers ([3]; by the end of the study (27 day storage at 15° C.)): 2.5 fold
respiration rate greater than untreated tubers ([3]; immediately following the 12 hour treatment period): 38%
inhibition of sprout development (in words) [4]: inhibited sprouting in a concentration-dependent manner
